Data on one compound can be found in EP1263444B1, “USE OF XANTHINE DERIVATIVES FOR PREPARING A MEDICINE FOR PREVENTING AND TREATING OSTEOPOROSIS” (Aventis Pharma S.A., priority 2000, dated 2001).

What all share (assay type): in vivo
For data set [1], the system named is rate ovariectomisée. The data set can be described thus: Uterus weight in the ovariectomised rat model. The following applies: 10 mg/kg po, 4 weeks, weight increase in % of uterus weight of OVX animals receiving solvent only. The source says: (§1) L'impact osseux des dérivés de xanthine selon l'invention a été évalué sur un modèle d'ostéopénie, la rate ovariectomisée à l'âge de 3 mois, afin de déterminer son effet sur la masse osseuse, et sur l'activité de formation et de résorption osseuse sur ce modèle. Les animaux sont traités en préventif.
(§2) Sur ce modèle d'ostéopénie l'effet d'un dérivé xanthine est comparé à celui de la PTH • Produit à tester : Le [1-(3-phénylxanthin-1-yl)méthyl] diméthylphosphine oxide • véhicule(s) : méthylcellulose 0,5 % ou sérum physiologique • dose(s) : 10 mg/kg pour le produit. la PTH est administrée à la dose de 10 et 25 µg/kg/j par voie sous cutanée • nombre d'administrations : une fois/jour; 5 jours/semaine pendant 4 semaines • voie d'administration : voie orale pour le produit. La PTH est administrée par voie sous cutanée • volume : 1 ml/kg p o et s c • délai entre l'injection et le sacrifice : 24 heures • nombre d'administrations : 20.
(§3) Des rats femelles âgées de 3 mois et pesant environ 250-300 g sont ovariectomisées sous anesthésie à l'Imalgène 1000, à la dose de 100 mg/kg par voie intrapéritonéale (i.p) et sous un volume de 1 ml/kg. Ils reçoivent également du Nembutal (3 mg/kg i.p. sous un volume de 0,3 ml/kg). Les animaux sont répartis en groupes de 8 rats.
(§4) Après incision latérale, les plans cutanés et musculaires sont sectionnés. L'exérèse de chaque ovaire se fait après ligature de l'oviducte. […]

Data set [2] has as its system rate ovariectomisée. The data set can be described thus: Bone mineral density (DEXA) of the left tibia in the ovariectomised rat osteopenia model, preventive treatment. The following applies: 10 mg/kg po, once daily, 5 days/week for 4 weeks; (BMD treated - BMD OVX)/(BMD SHAM - BMD OVX) x 100.
Text: as §1, §2, §3, §4

In data set [3] the test system is rate ovariectomisée. The experiment in a line: Serum cholesterol level in the ovariectomised rat model. The following applies: 10 mg/kg po, 4 weeks, decrease of serum cholesterol in % versus OVX animals receiving solvent only.
Text: as §1, §2, §3, §4

As to `CP(C)(=O)Cn1c(=O)c2[nH]cnc2n(-c2ccccc2)c1=O` [Dérivé xanthine, [1-(3-phénylxanthin-1-yl)méthyl] diméthylphosphine oxide], the “UTERUS Poids %” value is reported as 10% in the data set with rate ovariectomisée [1] and “aucune activité utérotrophique” in the data set on rate ovariectomisée [1] (listed as Ce produit). Moreover, the “OS TIBIA Densité %” value with rate ovariectomisée [2] stood at 40%. Besides, the Cholestérol % result in the data set on rate ovariectomisée [3] is recorded as “Pas d'effet”; with rate ovariectomisée [3] (listed as Ce produit), “pas d'effet”.
